Source: US20070270348A1, “Compositions and Methods for Modulating Insulin-Activated Nitric Oxide Synthase” (priority 2004, published 2007)
“Also recorded” adds a separate entry of the source. Read-outs that look alike come from different tables or passages of the source. Ends that are not written are not given here.

Tests used:
human erythrocytes = experiment: Stimulation of nitric oxide synthesis from l-arginine in human erythrocyte suspension; type: cell-based
Description: Stimulation of nitric oxide synthesis from l-arginine by allimin in human erythrocytes was shown by incubation of a human erythrocyte suspension with different concentrations of purified allimin.
Fractions (1.5 ml each) were collected and the ability of each fraction to stimulate nitric oxide synthesis from l-arginine in human erythrocytes was determined.
The stimulation of nitric oxide synthesis was determined by assaying 0.1 ml of aqueous extracts of garlic or benzene purified allimin or different fractions from the SEPHADEX® column to erythrocyte suspensions in Kreb's buffer, pH 7.4. The formation of nitric oxide in the reaction mixture was quantitated by the conversion of oxyhemoglobin to methemoglobin. Quantitative amounts of nitric oxide in the reaction mixture were confirmed independently by chemiluminescence technique. Briefly 1.0 ml of the reaction supernatant was treated with 15 mM (final concentration) of oxyhemoglobin under N2. The spectral changes at 650, 630 and 575 nm due to the conversion of oxyhemoglobin to methemoglobin was continuously monitored by using a scanning BECKMAN spectrophotometer to quantitate nitric oxide formation using greater than 99% percent pure preparation of nitric oxide.
Blood was collected from healthy male and female volunteers, between the ages of 25-50 years, who had not taken any medication for at least for 14 days prior to the donation of blood. The blood was anti-coagulated by adding 1 volume 130 mM sodium citrate to 9 volumes of blood, mixed by gentle inversion, and the erythrocyte suspension was prepared.

[1] = test system: ADP-induced platelet aggregation; experiment: ADP-induced platelet aggregation in platelet rich plasma; type: cell-based; settings: 40 nM, 30 minutes at 23° C., 6 μM ADP
Description: Given the role of nitric oxide in the function of platelets it is was determined whether allimin could modulate platelet aggregation. Platelet Rich Plasma (PRP) was isolated from citrated blood and incubated with […] Allimin for 30 minutes at 23° C. Subsequently, 6 μM adenosine 5′-diphosphate (ADP) was added and inhibition of ADP-induced platelet aggregation was recorded and compared with a control.

[2] = test system: alloxan-induced diabetic mice; settings: for duration of euglycemia / normal glucose levels after one dose: single oral bolus; for plasma glucose level: oral allimin
Description: To determine whether the increased plasma nitric oxide level achieved through the oral administration of allimin would result in the decrease of elevated plasma glucose levels in diabetic mice, the plasma glucose level was continuously monitored. […] In a further study, diabetic mice were injected with insulin (200 μunits/25 g) in their hind leg muscle instead of oral administration of allimin.
Inbred albino mice of both sexes were raised in an institutional facility from birth to age 2 months and weighed between 20-25 grams. These mice were allowed free access to feed and sterile water under 12 hour cycles of alternating light and dark. A total of 60 mice were studied. Group I consisted of 20 mice that were divided into 4 subgroups of 5 mice per subgroup. […] Group II consisted of 20 mice that were divided in 4 groups, 5 mice in each subgroup. All of the mice were made diabetic, one of the diabetic subgroup of mice received insulin and the second diabetic subgroup received oral administration of allimin.
Alloxan was used to induce diabetes in mice in accordance with standard methods. Blood glucose levels were determined by using glucose oxidase strips in a glucometer. The mice were considered to be diabetic when the blood glucose level after overnight fasting were 250-300 mg/dl as compared to 70-80 mg/dl in non-diabetic mice. […] When these diabetic mice were fed ad libitum, the blood glucose level increased to 400-450 mg/dl after 2 hours of feeding.

[3] = test system: non-diabetic and alloxan-induced diabetic mice; experiment: Plasma nitric oxide level after oral administration in mice; type: in vivo
Description: The effect of oral administration of allimin on the plasma nitric oxide level in diabetic and non-diabetic mice was determined using alloxan-induced diabetic mice as compared to normal non-diabetic mice. […] Allimin was orally administered (75 μg/kg body weight) to non-diabetic and alloxan-induced diabetic mice. The plasma nitric oxide level was measured on different days. Results were obtained from 10 mice in each group in triplicate. While the plasma nitric oxide level in the diabetic mice was 0.1±0.02 nmol/ml, the nitric oxide level in the non-diabetic mice was 0.75±0.05 nmol/ml (p<0.05). Upon oral administration of allimin (75 micrograms/kg body weight), the plasma nitric oxide level was increased to 0.45±0.05 nmol/ml within 24 hours and continued to increase thereafter, to a maximum of 0.8±0.1 nmol/ml on the third day. On the fourth day, the plasma nitric oxide level began to gradually decrease. On the sixth day, the plasma nitric oxide level returned to the pretreatment level in the diabetic mice.
A total of 60 mice were studied.

[4] = test system: mice epitrochlearis muscle; experiment: Glucose transport activity in epitrochlearis muscle; type: cell-based; settings: insulin 200 μU/ml, allimin 50 μg/ml, NAME 10 μg/ml, mean ± SD
Description: (§1) The in vitro effect of allimin on glucose transport and glucose oxidation was compared with that of insulin in mice epitrochlearis muscle which is reported to be a model target tissue for insulin action. […] Addition of NAME to the incubation mixture inhibited the insulin-mimicking effect of allimin on both glucose transport and glucose oxidation. In another study, membranes from epitrochlearis muscle were prepared and the effect of allimin on the activation of the membrane tyrosine kinase and PI3 kinase were determined by incubating the membrane preparation with either insulin or allimin.
Mice epitochlearis muscle and the membrane of the muscle were prepared. Glucose transport activity was determined by incubating […] of epitochlearis muscle in Krebs-Ringer buffer, pH 7.4, in the presence of either insulin ([…]) or allimin ([…]) using a 2-deoxy D-^14C glucose. Glucose oxidation was determined by incubating […] of epitrochlearis muscle in Krebs-Ringer buffer, pH 7.4, in the presence of either insulin or allimin as indicated using U-14C glucose. Insulin- or allimin-induced activation of tyrosine kinase and PI3 kinase activities of the membrane preparation were determined using anti-phosphotyrosine antibody and PI3 kinase antibody, respectively, as described. Results shown in Table 4 are mean ±SD of 5 to 6 experiments using different animals.

[5] = test system: mice epitrochlearis muscle; experiment: Glucose oxidation in epitrochlearis muscle; type: cell-based; settings: insulin 200 μU/ml, allimin 50 μg/ml, NAME 10 μg/ml, mean ± SD
Description: as §1
The effect of allimin on the oxidation of glucose was compared with that of insulin. […] Glucose oxidation was determined.
(§2) Mice epitochlearis muscle and the membrane of the muscle were prepared. Glucose transport activity was determined by incubating […] of epitochlearis muscle in Krebs-Ringer buffer, pH 7.4, in the presence of either insulin ([…]) or allimin ([…]) using a 2-deoxy D-^14C glucose. Glucose oxidation was determined by incubating […] of epitrochlearis muscle in Krebs-Ringer buffer, pH 7.4, in the presence of either insulin or allimin as indicated using U-14C glucose. […]

[6] = test system: Ehrlich's ascitic carcinoma cells (EAC cells); experiment: Survival and body weight of mice with Ehrlich's carcinoma ascites; settings: daily allimin
Description: In addition to normal or control mice, ascitic carcinoma was induced in Swiss albino mice by injecting approximately 10^6 Ehrlich's ascitic carcinoma cells (EAC cells) into the peritoneal cavity of mice (Hartveit et al. (1970) Acta. Pathol. Microbiol. Scand. 78:516-524). Animals were divided into two groups, one group receiving laboratory chow alone and the other receiving allimin (75 micrograms/kg body weight/day) along with laboratory chow. Animals in each group were given the respective diets for 10 days before both groups were injected with EAC cells. Dietary treatment then continued during ascites development such that an increase of an EAC cell count to 5×10^6 cells/ml was achieved.

mouse erythrocytes = experiment: Nitric oxide production in erythrocytes of mice injected with EAC cells; settings: for NO produced by erythrocytes: EAC mice, allimin 75 micrograms/kg/day oral
Description: Using a well-established mouse model for anti-neoplastic drug testing (Hartveit et al. (1970) Acta. Pathol. Microbiol. Scand. 78:516-524), the effects of oral administration of allimin on the production of nitric oxide in mouse erythrocytes was examined. Blood was drawn from the tail vein of Swiss albino mice (2 months of age) and was anti-coagulated by adding sodium citrate to the blood sample. The erythrocyte suspension was prepared according to standard methods (Ray et al. (1986) Biochim. Biophys. Acta. 856:421-427). […] The formation of nitric oxide in the reaction mixture was quantitated by the conversion of oxyhemoglobin to methemaglobin (Jia et al. (1996) Nature 380:221-226) and verified by chemiluminescence techniques (Sinha et al. (1999) Life Sci. 265:2687-2696). In addition to normal or control mice, ascitic carcinoma was induced in Swiss albino mice by injecting approximately 10^6 Ehrlich's ascitic carcinoma cells (EAC cells) into the peritoneal cavity of mice (Hartveit et al. (1970) Acta. Pathol. Microbiol. Scand. 78:516-524). Animals were divided into two groups, one group receiving laboratory chow alone and the other receiving allimin (75 micrograms/kg body weight/day) along with laboratory chow. Animals in each group were given the respective diets for 10 days before both groups were injected with EAC cells. Dietary treatment then continued during ascites development such that an increase of an EAC cell count to 5×10^6 cells/ml was achieved.
For the preparation of erythrocyte suspensions from mice, blood was drawn from the tail vein and anti-coagulated by adding sodium citrate to the blood sample and a suspension was made as described by Ray et al. ((1986) Biochim. Biophys. Acta 856:421-427).

PI3 kinase = PI3 kinase activation of muscle membrane; type: biochemical, mice; settings: insulin 200 μU/ml, allimin 50 μg/ml, none = 100, mean ± SD
Description: as §1
The activation of PI3 kinase of mice epitrochlearis muscle membrane either by allimin or insulin was determined using PI3 kinase antibody. […] The PI3 kinase activity was determined by CHCl3—CH3OH extraction and HPLC.
as §2

membrane tyrosine kinase = experiment: Membrane tyrosine kinase activation; type: biochemical, mice; settings: insulin 200 μU/ml, allimin 50 μg/ml, none = 100, mean ± SD
Description: as §1
The effect of allimin on the activation of epitrochlearis muscle membrane was determined using monoclonal anti-phosphotyrosine kinase antibody, Glu^80 Tyr^80 copolymer, and [^32P]-ATP and compared with that of insulin.
as §2

EAC cells = experiment: Viability of EAC cells in peritoneal fluid; type: in vivo, Swiss albino mice
Description: Experiments were performed to determine the effects of allimin on the viability of EAC cells, a measure of the anti-neoplastic activity of allimin. Total EAC count (dead+viable cells) in peritoneal fluid was determined after 14 days of injection of EAC in the allimin treated and the untreated mice. […] It was noted that 25% of the viable EAC in the fluid of allimin-treated mice were twice as large (size) as compared to those in the untreated mice. This increase in cell size is indicative of the onset of death and the loss of the ability to regulate osmotic pressure (Ballas (1999) Merck Manual, Merck Research Laboratories, Whitehouse Station, N.J., pp. 1002-1023). The cellular basis for the decreased viability of the carcinoma cells in the allimin-treated mice was tested using a DNA fragmentation assay (Liu et al. (2000) Nucleic Acids Res. 28:4180-4188).

`COC(=O)[C@@H](N)CCCNC(=N)N[N+](=O)[O-]` [NAME, NG-nitro L-arginine methyl ester, reference compound] was tested. Which “inhibition of allimin-stimulated nitric oxide synthesis” value (human erythrocytes; 10 μM NAME added to reaction mixture with allimin) did it give?
Its value is “completely inhibited; also recorded: complete inhibition”.

How did the “inhibition of ADP-induced platelet aggregation” value [1] turn out when “Allimin (XMIPTNGEGLYAGQSLDVEQYKFIMRPDDNLVXYX; X: residue not identified in the source; listed as Allium sp.)” was run?
Its value is “potent inhibitor of platelet aggregation”.

What about the “duration of euglycemia / normal glucose levels after one dose” value ([2]; diabetic animals) of the same molecule?
The value was “up to four or five days”.

And the “duration of euglycemia / normal glucose levels after one dose” value ([2]; diabetic animals, listed as allimin)?
The value was “four to five consecutive days”.

And the plasma glucose level ([2]; diabetic mice, next four days)?
Its plasma glucose level is 120 to 130 mg/dL.

And the plasma glucose level ([2]; diabetic mice, sixth day)?
Its plasma glucose level is “above 350 mg/dl”.

And the plasma glucose level ([2]; diabetic mice, within next 12 hours, initial 470±20)?
Its plasma glucose level is 120 ± 10 mg/dL.

What about the “duration of elevation of plasma nitric oxide” value ([3]; diabetic mice, one time oral bolus dose) of the same molecule?
The value was “about five days; also recorded: four to five days”.

What about the “day plasma nitric oxide level returned to pretreatment level” value ([3]; diabetic mice, single oral 75 micrograms/kg) of the same molecule?
Its value is “sixth day”.

And the “plasma nitric oxide level, maximum” value ([3]; diabetic mice, single oral 75 micrograms/kg, third day)?
The value was 0.8 ± 0.1 nmol/mL.

What about the “plasma nitric oxide level” value ([3]; diabetic mice, single oral 75 micrograms/kg, within 24 hours, pretreatment 0.1±0.02) of the same molecule?
The value was 0.45 ± 0.05 nmol/mL.

And the “day plasma nitric oxide level decreased to pretreatment level” value ([3]; non-diabetic mice, oral feeding)?
The value was “fourth day”.

What about the Glucose transport [4] of the same molecule?
The Glucose transport was 82 ± 6 nmol/g protein/minute.

What about the “Glucose Oxidation” value [5] of the same molecule?
Its value is 306 ± 82 nmol/g protein/minute.

And the “survival at 20 days” value ([6]; controls succumbed by day 20)?
The value was “survived the EAC carcinogenic insult at 20 days”.

What about the “mice surviving at least 40 days” value ([6]; p<0.01) of the same molecule?
The value was “Ten percent”.

And the “nitric oxide production from erythrocytes restored to” value (mouse erythrocytes; allimin fed 10 days after the carcinogenic insult, 4.02% without)?
The value was 92.78%.

What about the “NO produced by erythrocytes” value (mouse erythrocytes; day 1) of the same molecule?
The value was 0.569 ± 0.02 nmol NO produced/10^8 cells/hour.

And the “NO produced by erythrocytes” value (mouse erythrocytes; day 5)?
The value was 0.392 ± 0.01 nmol NO produced/10^8 cells/hour.

And the “NO produced by erythrocytes” value (mouse erythrocytes; day 10)?
The value was 0.408 ± 0.02 nmol NO produced/10^8 cells/hour.

And the “NO produced by erythrocytes” value (mouse erythrocytes; day 15)?
Its value is 0.440 ± 0.01 nmol NO produced/10^8 cells/hour.

What about the “NO produced by erythrocytes” value (mouse erythrocytes; day 20) of the same molecule?
The value was 0.498 ± 0.02 nmol NO produced/10^8 cells/hour.

And the “NO produced by erythrocytes” value (mouse erythrocytes; day 25)?
The value was 0.532 ± 0.02 nmol NO produced/10^8 cells/hour.

What about the “NO produced by erythrocytes” value (mouse erythrocytes; day 30) of the same molecule?
The value was 0.528 ± 0.03 nmol NO produced/10^8 cells/hour.

What about the “reduction of nitric oxide production in erythrocytes” value (mouse erythrocytes; twenty days after EAC injection, dietary allimin, 86.72% without) of the same molecule?
The value was 12.48%.

And the PI3 kinase activation (PI3 kinase)?
Its PI3 kinase activation is 187 ± 12 % activation.

And the Tyrosine kinase activation (membrane tyrosine kinase)?
Its Tyrosine kinase activation is 215 ± 10 % activation.

What about the “total EAC count (dead+viable cells) in peritoneal fluid” value (EAC cells; 14 days after injection of EAC) of the same molecule?
Its value is 7×10^6 cells/ml.

What about the “dead EAC count in peritoneal fluid” value (EAC cells; 14 days after injection of EAC, untreated 3×10^4) of the same molecule?
The value was 2×10^5 cells/ml.

What about the “pathway of EAC cell death (DNA fragmentation assay)” value (EAC cells; oral allimin) of the same molecule?
The value was “induced the necrotic pathway”.

And the “viable EAC twice as large as in untreated mice” value (EAC cells; peritoneal fluid of treated mice)?
The value was 25%.

And the “concentration at which synthesis of nitric oxide was maximally stimulated” value (human erythrocytes; human erythrocyte suspension)?
The value was 8 nM.

And the “Specific Activity (nmol NO/mg/h)” value (human erythrocytes; purification step of garlic extract, stimulation of NO synthesis)?
The value was 563.75 nmol NO/mg/h.

With “Insulin: Insulin (trade name HUMULIN, obtained from Eli Lilly) [reference compound]” as the molecule, how does the “duration of control of hyperglycemia” value ([2]; diabetic animals, single intramuscular injection) read?
Its value is “less than 24 hours”.

What about the “blood glucose level after injection” value ([2]; diabetic mice, 200 μunits/25 g in hind leg muscle, within next 24 hours) of the same molecule?
Its value is 350 ± 20 mg/dL.

What about the “effect of oral administration on elevated blood glucose level” value ([2]; diabetic mice, oral) of the same molecule?
Its value is “no effect”.

And the Glucose transport [4]?
Its Glucose transport is 75 ± 4 nmol/g protein/minute.

What about the “Glucose Oxidation” value [5] of the same molecule?
Its value is 278 ± 80 nmol/g protein/minute.

What about the PI3 kinase activation (PI3 kinase) of the same molecule?
The PI3 kinase activation was 155 ± 10 % activation.

And the Tyrosine kinase activation (membrane tyrosine kinase)?
The Tyrosine kinase activation was 210 ± 18 % activation.
